From patent US7875587B2, “Peptide analogues of GIP for treatment of diabetes, insulin resistance and obesity” (UUTECH Limited, priority 2004, dated 2011)
No end group written: not given here.

Assays:
ob/ob mice = test: Acute metabolic and dose-response effects with glucose in 18 h fasted ob/ob mice; type: in vivo, mouse; details: for overall glucose excursion (glucose AUC) compared to glucose alone: 25 nmoles/kg i.p. with glucose 18 mmoles/kg, 0-60 min; for AUC glucose and insulin in dose-response study: 6.25, 12.5 and 25 nmoles/kg with glucose
Procedure: Animals. Obese diabetic (ob/ob) mice derived from the colony maintained at Aston University, UK were used at 12-17 weeks of age. The genetic background and characteristics of the colony used have been outlined in detail elsewhere (Bailey, C. J. et al., 1982, Int. J. Obesity 6:11-21; Gault, V. A. et al., 2003, J. Endocrinol. 176: 133-141). Animals were housed in an air-conditioned room at 22±2° C. with a 12 hours light: 12 hours dark cycle. Drinking water and standard rodent maintenance diet (Trouw Nutrition, Cheshire, UK) were freely available. All test solutions were administered by i.p. injection in a final volume of 5 ml/kg bw. Blood was collected from the cut tip of the tail vein of conscious mice into chilled fluoride/heparin microcentrifuge tubes immediately prior to injection and at the times indicated in the Figures. Plasma was separated using a Beckman microcentrifuge (Beckman Instruments, UK) at 13,000 g for 30 second and stored at −20° C. prior to glucose and insulin determinations. All animal experiments were carried out in accordance with the UK Animals (Scientific Procedures) Act 1986.
Metabolic and dose-response effects of GIP and N-AcGIP(LysPAL) analogues (at 6.25-25 nmoles/kg bw) following glucose administration (18 mmoles/kg bw) were examined in mice fasted for 18 hours. […] Food intake and body weight were recorded daily. Plasma glucose and insulin concentrations were monitored at 2-6 day intervals. At 14 days, groups of animals were used to evaluate intraperitoneal glucose tolerance (18 mmoles/kg) and insulin sensitivity (50 U/kg). In a separate series, two experimental protocols were employed to examine the possibility of GIP receptor desensitization after 14 days treatment. […] At the end of the 14-day treatment period, pancreatic tissues were excised for measurement of insulin following extraction with 5 ml/g ice-cold acid ethanol (75% ethanol, […], 1.5% HCl). Whole blood was taken for determination of glycated hemoglobin.
Biochemical analyses. Plasma glucose was assayed by an automated glucose oxidase procedure (Stevens, J. F., 1971, Clin. Chem. Acta 32:199-201) using a Beckman Glucose Analyser II (Beckman, Galway, Ireland). Plasma insulin was determined by dextran-charcoal RIA as described previously (Flatt, P. R. et al., 1981, Diabetologia 20: 573-577). Glycated hemoglobin was determined using cation-exchange columns (Sigma, Poole, Dorset, UK) with measurement of absorbance (415 nm) in wash and eluting buffers using a VersaMax microplate spectrophotometer (Molecular Devices, Wokingham, Berkshire, UK).
Statistics. Results are expressed as mean±SEM. Data were compared using the unpaired Student's t-test. Where appropriate, data were compared using repeated measures ANOVA or one-way ANOVA, followed by the Student-Newman-Keuls post hoc test. Incremental areas under plasma glucose and insulin curves (AUC) were calculated using a computer-generated program employing the trapezoidal rule (Burington, R. S., 1973, Handbook of Mathematical Tables and Formulae, McGraw-Hill, New York) with baseline subtraction.

Wistar rats = test: In vivo plasma glucose and insulin after i.p. glucose with peptide in Wistar rats; set-up: species or system rat; details: 10 nmol/kg i.p. with glucose
Procedure: In vivo biological activity of GIP and Tyr^1-glucitol GIP. Effects of GIP and Tyr^1-glucitol GIP on plasma glucose and insulin concentrations were examined using 10-12 week old male Wistar rats. The animals were housed individually in an air conditioned room and 22±2° C. with a 12 hour light/12 hour dark cycle. Drinking water and a standard rodent maintenance diet (Trouw Nutrition, Belfast, Northern Ireland) were supplied ad libitum. Food was withdrawn for an 18 hour period prior to intraperitoneal injection of glucose alone (18 mmol/kq body weight) or in combination with either GIP or Tyr^1-glucitol GIP (10 nmol/kg). Test solutions were administered in a final volume of 8 ml/kg body weight. Blood samples were collected at 0, 15, 30 and 60 minutes from the cut tip of the tail of conscious rats into chilled fluoride/heparin microcentrifuge tubes (Sarstedt, Numbrecht, Germany). Samples were centrifuged using a Beckman microcentrifuge for about 30 seconds at 13,000 g. Plasma samples were aliquoted and stored at −20° C. prior to glucose and insulin determinations. All animal studies were done in accordance with the Animals (Scientific Procedures) Act 1986.
Analyses. Plasma glucose was assayed by an automated glucose oxidase procedure using a Beckman Glucose Analyzer II [33]. Plasma insulin was determined by dextran charcoal radioimmunoassay as described previously. Incremental areas under plasma glucose and insulin area under the curve (AUC) were calculated using a computer program (CAREA) employing the trapezoidal rule with baseline subtraction. Results are expressed as mean±SEM and values were compared using the Student's unpaired t-test.

BRIN-BD11 cells = test: Acute tests for insulin secretion from BRIN-BD11 cells; type: cell-based; details: 5.6 and 16.7 mM glucose, 10^-13 to 10^-8 M peptide
Procedure: Culture of insulin secreting cells. BRIN-BD11 cells were cultured in sterile tissue culture flasks (Corning, Glass Works, UK) using RPMI-1640 tissue culture medium containing 10% (v/v) foetal calf serum, 1% (v/v) antibiotics (100 U/ml penicillin, 0.1 mg/ml streptomycin) and 11.1 mM glucose. The cells were maintained at 37° C. in an atmosphere of 5% CO2 and 95% air using a LEEC incubator (Laboratory Technical Engineering, Nottingham, UK).
Acute tests for insulin secretion. Before experimentation, the cells were harvested from the surface of the tissue culture flasks with the aid of trypsin/EDTA (Gibco), seeded into 24-multiwell plates (Nunc, Roskilde, Denmark) at a density of 1.5×10^5 cells per well, and allowed to attach overnight at 37° C. Acute tests for insulin release were preceded by 40 minutes pre-incubation at 37° C. in 1.0 ml Krebs Ringer bicarbonate buffer (115 mM NaCl, 4.7 mM KCl, 1.28 mM CaCl2, 1.2 mM KH2PO4, 1.2 mM MgSO4, 10 mM NaHCO3, 5 g/l bovine serum albumin, pH 7.4) supplemented with 1.1 mM glucose. Test incubations were performed (n=12) at two glucose concentrations (5.6 mM and 16.7 mM) with a range of concentrations (10^−13 to 10^−8 M) of GIP or GIP analogues. After 20 minutes incubation, the buffer was removed from each well and aliquots (200 μl) were used for measurement of insulin by radioimmunoassay.

CCCCCCCCCCCCCCCC(=O)NCCCC[C@H](NC(=O)[C@H](Cc1c[nH]c2ccccc12)NC(=O)[C@H](CC(=O)O)NC(=O)[C@H](CC(N)=O)NC(=O)[C@H](CCCCN)NC(=O)[C@H](CCCCN)NC(=O)CNC(=O)[C@H](CCCCN)NC(=O)[C@H](CCC(N)=O)NC(=O)[C@H](C)NC(=O)[C@H](CC(C)C)NC(=O)[C@H](CC(C)C)NC(=O)[C@H](Cc1c[nH]c2ccccc12)NC(=O)[C@H](CC(N)=O)NC(=O)[C@@H](NC(=O)[C@H](Cc1ccccc1)NC(=O)[C@H](CC(=O)O)NC(=O)[C@H](CCC(N)=O)NC(=O)[C@H](CCC(N)=O)NC(=O)[C@H](Cc1c[nH]cn1)NC(=O)[C@@H](NC(=O)[C@H](CCCCN)NC(=O)[C@H](CC(=O)O)NC(=O)[C@H](CCSC)NC(=O)[C@H](C)NC(=O)[C@@H](NC(=O)[C@H](CO)NC(=O)[C@H](Cc1ccc(O)cc1)NC(=O)[C@H](CC(=O)O)NC(=O)[C@H](CO)NC(=O)[C@@H](NC(=O)[C@H](Cc1ccccc1)NC(=O)[C@@H](NC(=O)CNC(=O)[C@H](CCC(=O)O)NC(=O)[C@H](C)NC(=O)[C@H](Cc1ccc(O)cc1)NC(C)=O)[C@@H](C)O)[C@@H](C)CC)[C@@H](C)CC)[C@@H](C)CC)C(C)C)C(=O)N[C@@H](Cc1c[nH]cn1)C(=O)N[C@@H](CC(N)=O)C(=O)N[C@H](C(=O)N[C@H](C(=O)N[C@@H](CCC(N)=O)C(=O)O)[C@@H](C)O)[C@@H](C)CC [N-AcGIP(LysPAL^37)]
antihyperglycaemic effect compared to glucose alone (ob/ob mice; 6.25 nmoles/kg with glucose): highly significant antihyperglycaemic properties | insulin response (AUC) compared to glucose alone (ob/ob mice; 6.25 nmoles/kg with glucose): 2.0 fold | enhancement of overall glucose-mediated insulin release (AUC) compared to native GIP (ob/ob mice; 25 nmoles/kg i.p. with glucose): 2.3 fold | overall glucose excursion compared to native GIP (ob/ob mice; 25 nmoles/kg i.p. with glucose): decreased the overall glucose excursion | potency at stimulating insulin secretion relative to N-AcGIP(LysPAL^16) (ob/ob mice; 25 nmoles/kg i.p. with glucose): 1.5 fold | overall glucose excursion (glucose AUC) compared to glucose alone (ob/ob mice): significantly lowered glucose AUC | AUC glucose and insulin in dose-response study (ob/ob mice): prominent dose-dependent antihyperglycaemic and insulinotropic actions at all doses administered

CC[C@H](C)[C@H](NC(=O)[C@H](CO)NC(=O)[C@H](Cc1ccc(O)cc1)NC(=O)[C@H](CC(=O)O)NC(=O)[C@H](CO)NC(=O)[C@@H](NC(=O)[C@H](Cc1ccccc1)NC(=O)[C@@H](NC(=O)CNC(=O)[C@H](CCC(=O)O)NC(=O)[C@H](C)NC(=O)[C@@H](N)Cc1ccc(O)cc1)[C@@H](C)O)[C@@H](C)CC)C(=O)N[C@@H](C)C(=O)N[C@@H](CCSC)C(=O)N[C@@H](CC(=O)O)C(=O)N[C@@H](CCCCN)C(=O)N[C@H](C(=O)N[C@@H](Cc1c[nH]cn1)C(=O)N[C@@H](CCC(N)=O)C(=O)N[C@@H](CCC(N)=O)C(=O)N[C@@H](CC(=O)O)C(=O)N[C@@H](Cc1ccccc1)C(=O)N[C@H](C(=O)N[C@@H](CC(N)=O)C(=O)N[C@@H](Cc1c[nH]c2ccccc12)C(=O)N[C@@H](CC(C)C)C(=O)N[C@@H](CC(C)C)C(=O)N[C@@H](C)C(=O)N[C@@H](CCC(N)=O)C(=O)N[C@@H](CCCCN)C(=O)NCC(=O)N[C@@H](CCCCN)C(=O)N[C@@H](CCCCN)C(=O)N[C@@H](CC(N)=O)C(=O)N[C@@H](CC(=O)O)C(=O)N[C@@H](Cc1c[nH]c2ccccc12)C(=O)N[C@@H](CCCCN)C(=O)N[C@@H](Cc1c[nH]cn1)C(=O)N[C@@H](CC(N)=O)C(=O)N[C@H](C(=O)N[C@H](C(=O)N[C@@H](CCC(N)=O)C(=O)O)[C@@H](C)O)[C@@H](C)CC)C(C)C)[C@@H](C)CC [GIP 1–42, reference compound]
overall insulin response (AUC) compared with glucose alone (Wistar rats): significantly greater | plasma glucose concentrations and AUC compared with control group (Wistar rats; vs glucose alone, 0-60 min): significantly lower | overall insulinotropic response compared with glucose alone (ob/ob mice; 25 nmoles/kg i.p. with glucose): significantly elevated the overall insulinotropic response | overall glucose excursion (glucose AUC) compared to glucose alone (ob/ob mice): failed to reach significance | AUC glucose and insulin in dose-response study (ob/ob mice): did not significantly affect | insulin secretion from BRIN-BD11 cells (BRIN-BD11 cells): prominent and dose-related stimulation of insulin secretion

YAPGTFISDYSIAMDKIHQQDFVNWLLAQKGKKNDWKHNITQ [(Pro^3)GIP]
insulin secretion from BRIN-BD11 cells (BRIN-BD11 cells): least potent analogues in terms of insulin release
